Reference: paper PMC10224031, “Arylimidamides Have Potential for Chemoprophylaxis against Blood-Transmitted Chagas Disease” (Pathogens, 2023)
pEC50: −log10 of the molar value. Several values for one entry are separate records, joined by “and”; a condition that tells them apart may be missing. Equal entries are not always repeated. Where two headings read alike, the source gives them in different places. Marks after values point to notes of the source that are not given here.

Legend:
[1] = system: T. cruzi bloodstream trypomastigotes; experiment: In vivo infectivity in Swiss mice of blood samples infected with bloodstream trypomastigotes pre-treated with AIAs or CV; set-up: species or system Trypanosoma cruzi; details: for suppression of the parasite load (parasitemia): both genders; for Clearance of the Parasitemia / Clearance of the Parasitemia after cyclophosphamide administration: cleared mice/total
Procedure: Male and female Swiss Webster mice (18–20 g) were obtained from the Fundação Oswaldo Cruz animal facilities (ICTB, Rio de Janeiro, Brazil). Mice were housed at a maximum of five per cage, kept in a specific pathogen-free (SPF) room at 20 to 24 °C under a 12-h/12 h light/dark cycle and provided sterilized water and chow ad libitum. The animals were allowed to acclimate for 7 days before the start of the experiments.
For evaluation of the chemoprophylactic potential of the AIAs and CV in vivo, the mice were inoculated (via i.p.) with 10^4 trypomastigotes into 200 µL of: (a) infected untreated blood samples; (b) infected using blood samples pre-treated for 2 h with the compounds at a concentration corresponding either to their EC50 or with 96 µM of one of the AIAs.
Parasitemia of individual mice was daily checked (until 10 dpi, and then, twice a week) by direct microscopic counting of parasites in 5 µL of blood taken via tail prick. Body weight was evaluated weekly, and mortality was checked daily until 40 days post-treatment and expressed as the percentage of survival. Thirty days after treatment the animals were immunosuppressed with cyclophosphamide (50 mg/kg) in three cycles of 4 consecutive days/week and the parasitemia and mortality rates were evaluated for 4 weeks.

mouse blood cells = type: cell-based; details: Swiss Webster, 24 h
Procedure: In 96-well microplates, 100 µL of the mouse blood suspension was added to the same volume of DB745 or DB766 at concentrations ranging from 2.4 to 192 µM. After incubation at 4 °C for 24 h, the samples were centrifuged (5 min/540× g) and a 100 µL aliquot was transferred to another microplate and the levels of hemoglobin measured at 540 nm. Deionized water was used as control for 100% hemolytic activity, and PBS as a negative control. The degree of hemolysis was calculated by the variation index (VI) that corresponds to the ratio of optical density (OD) of the treated sample/positive control. The reading of the OD of the samples was performed in the SpectraMax® Plus 384 Absorbance Plate Reader spectrophotometer (540 nm) and duplicate samples were run in at least two assays.

[2] = system: bloodstream trypomastigotes of Trypanosoma cruzi; details: cited from earlier work; for fold more effective than crystal violet (trypanocidal activity): 4 °C in the presence of 96% mouse blood
[3] = system: bloodstream trypomastigotes (BT) of Trypanosoma cruzi; experiment: In vitro infectivity of bloodstream trypomastigotes pre-treated with AIAs in cardiac cell cultures; type: cell-based; details: for Par./Infected CC / II (infection index = % infection × parasites/infected CM) / % Infection: BT pre-treated 2 h at EC50 (DB745 6.4 μM, DB766 1.14 μM)
Procedure: Bloodstream trypomastigote (BT) forms of the Y strain were obtained from infected male Swiss mice, at peak parasitemia. The purified parasites were resuspended in Dulbecco’s modified Eagle’s medium (DME) supplemented with 10% FBS (DMES). […] Then, the parasite suspensions were centrifuged (3000 rpm/10 min) and the pellet resuspended in RPMI, quantified through light microscopy, and used for the infection of Swiss embryo mouse cardiac cell cultures (CC) seeded (15 × 10^4 cells/well) in 24-well plates (10:1 parasite–cell ratio). After 24 h of parasite–host cell interaction, the infected cultures were washed to remove free parasites and maintained at 37 °C in an atmosphere of 5% CO2 and air and the culture medium replaced every 24 h. Afterwards, untreated and treated infected cardiac cells (CCs) were fixed and stained with Giemsa and examined via light microscopy. Only characteristic T. cruzi nuclei and kinetoplasts were counted as surviving parasites since irregular structures could mean parasites undergoing death. The activity of the AIAs was estimated by calculating the infection index (II), which corresponds to the percentage of infected cells multiplied by the average number of intracellular parasites per infected host cell. Duplicate assays were run in the same plate and at least two independent assays were performed as standard.

[4] = experiment # 1, inoculum pre-treated 2 h at 96 μM, male Swiss mice, n = 5, vehicle 261.1 ± 124.6
[5] = experiment # 1, pre-treatment at 96 μM
[6] = experiment # 2, inoculum pre-treated 2 h at 96 μM, male Swiss mice, n = 5, vehicle 277.9 ± 57.2
[7] = experiment # 2, pre-treatment at 96 μM
[8] = female Swiss mice, n = 10, inoculum pre-treated at 96 µM, vehicle 247.7 ± 25.3
[9] = female mice, 96 µM, untreated 0%
[10] = male Swiss mice, n = 10, inoculum pre-treated at 96 µM, vehicle 209.8 ± 29.2
[11] = experiment # 1, inoculum pre-treated 2 h at EC50, male Swiss mice, n = 5, vehicle 261.1 ± 124.6
[12] = experiment # 1, pre-treatment at EC50
[13] = experiment # 2, inoculum pre-treated 2 h at EC50, male Swiss mice, n = 5, vehicle 277.9 ± 57.2
[14] = experiment # 2, pre-treatment at EC50
[15] = 2 h incubation, infected mouse blood, read-out: EC50
[16] = 24 h of parasite-host cell interaction, untreated 23.4 ± 5.5

| Compound | suppression of the parasite load (parasitemia) ([1]; 96 µM) [%] | Parasitemia at 8 dpi [1, 4] | Clearance of the Parasitemia [1, 5] | Parasitemia at 8 dpi [1, 6] | Clearance of the Parasitemia [1, 7] | Parasitemia at 8 dpi [1, 8] | Clearance of the Parasitemia after cyclophosphamide administration ([1]; female Swiss mice, 96 µM) | animal survival [1, 9] [%] | Parasitemia at 8 dpi [1, 10] | Clearance of the Parasitemia after cyclophosphamide administration ([1]; male Swiss mice, 96 µM) | animal survival ([1]; male mice, 96 µM, untreated 0%) [%] | OD (mouse blood cells; 3.9 μM) | VI (variation index = OD(treated)/OD(control)) (mouse blood cells; 3.9 μM) | OD (mouse blood cells; 10.6 μM) | VI (variation index = OD(treated)/OD(control)) (mouse blood cells; 10.6 μM) | Parasitemia at 8 dpi [1, 11] | Clearance of the Parasitemia [1, 12] | Parasitemia at 8 dpi [1, 13] | Clearance of the Parasitemia [1, 14] | fold more effective than crystal violet (trypanocidal activity) [2] | other results |
| --- | --- | --- | --- | --- | --- | --- | --- | --- | --- | --- | --- | --- | --- | --- | --- | --- | --- | --- | --- | --- | --- |
| CN(C)c1ccc(C(=C2C=CC(=[N+](C)C)C=C2)c2ccc(N(C)C)cc2)cc1 [CV, crystal violet, reference compound] | > 99 | 34.7 ± 38.5 ×10^4 Parasites/mL | 0/5 | 1.6 ± 1.7 ×10^4 Parasites/mL | 0/5 | 0 ± 0 10^4 parasites/mL | 3/10 | 90 | 0.1 ± 0.2 10^4 parasites/mL | 4/10 | 60 |  |  |  |  |  |  |  |  |  |  |
| CCOc1cc(NC(=N)c2ccccn2)ccc1-c1ccc(-c2ccc(NC(=N)c3ccccn3)cc2OCC)o1 [DB745] |  | 4.6 ± 2.4 ×10^4 Parasites/mL | 0/5 | 1.3 ± 1.1 ×10^4 Parasites/mL | 0/5 |  |  |  |  |  |  | 0.215 ± 0.037 | 0.082 | 0.184 ± 0.014 | 0.070 | 156.4 ± 31.1 ×10^4 Parasites/mL | 0/5 | 4.2 ± 2.1 ×10^4 Parasites/mL | 0/5 | at least 30 fold | OD (mouse blood cells; 1.2 μM): 0.220 ± 0.063; VI (variation index = OD(treated)/OD(control)) (mouse blood cells; 1.2 μM): 0.084; OD (mouse blood cells; 32 μM): 0.195 ± 0.007; VI (variation index = OD(treated)/OD(control)) (mouse blood cells; 32 μM): 0.074; OD (mouse blood cells; 96 μM): 0.206 ± 0.004; VI (variation index = OD(treated)/OD(control)) (mouse blood cells; 96 μM): 0.078; reduction of parasitemia peak ([1]; inoculum pre-treated at EC50, male Swiss mice): > 98%; pEC50 [2, 15]: 5.19; Par./Infected CC ([3]; 24 h, untreated 1.6 ± 0.5): 1.4 ± 0.3; II (infection index = % infection × parasites/infected CM) ([3]; 24 h, untreated 38 ± 16): 10 ± 4.4; % Infection [3, 16]: 7.3 ± 3.4 %; Par./Infected CC ([3]; 72 h, untreated 17.7 ± 1.7): 18.6 ± 2.4; % Infection ([3]; 72 h, untreated 26.3 ± 2.3): 14.6 ± 0.2%; II (infection index = % infection × parasites/infected CM) ([3]; 72 h, untreated 466 ± 49): 272 ± 39; effect on parasite multiplication (parasites per infected host cell) ([3]; BT pre-incubated at EC50): only slightly impaired the parasite multiplication |
| CC(C)Oc1cc(NC(=N)c2ccccn2)ccc1-c1ccc(-c2ccc(NC(=N)c3ccccn3)cc2OC(C)C)o1 [DB766] |  | 7.9 ± 5.2 ×10^4 Parasites/mL | 0/5 | 0.7 ± 1.1 ×10^4 Parasites/mL | 0/5 |  |  |  |  |  |  | 0.248 ± 0.018 | 0.094 | 0.200 ± 0.034 | 0.076 | 141.3 ± 152.7 ×10^4 Parasites/mL | 0/5 | 170.5 ± 39 ×10^4 Parasites/mL | 0/5 | at least 30 fold | OD (mouse blood cells; 32 μM): 0.230 ± 0.051; VI (variation index = OD(treated)/OD(control)) (mouse blood cells; 32 μM): 0.088; OD (mouse blood cells; 96 μM): 0.317 ± 0.069; VI (variation index = OD(treated)/OD(control)) (mouse blood cells; 96 μM): 0.121 *; pEC50 [2, 15]: 5.94; Par./Infected CC ([3]; 24 h, untreated 1.6 ± 0.5): 0.5 ± 0.7; II (infection index = % infection × parasites/infected CM) ([3]; 24 h, untreated 38 ± 16): 0.5 ± 2.1; decrease in number of parasites per infected host cell ([3]; 24 h of CC infection, BT pre-incubated at EC50): 69%; % Infection [3, 16]: 1% and 1.0 ± 1.5 %; Par./Infected CC ([3]; 72 h, untreated 17.7 ± 1.7): 0.3 ± 0.4; % Infection ([3]; 72 h, untreated 26.3 ± 2.3): 0.1% and 0.1 ± 0.2%; II (infection index = % infection × parasites/infected CM) ([3]; 72 h, untreated 466 ± 49): 0.03 ± 0.2; decrease in number of parasites per infected host cell ([3]; 72 h of CC infection, BT pre-incubated at EC50): 98%; reduction in the II ([3]; BT pre-incubated at EC50): > 99% |
| CC(C)Oc1cc(NC(=N)c2ncccn2)ccc1-c1ccc(-c2ccc(NC(=N)c3ncccn3)cc2OC(C)C)o1 [DB1831] | > 99 | 0.0 ± 0.0 ×10^4 Parasites/mL | 2/5 | 0.0 ± 0.0 ×10^4 Parasites/mL | 4/5 | 0.1 ± 0.5 10^4 parasites/mL | 2/10 | 100 | 0.0 ± 0.0 10^4 parasites/mL | 7 out of 10 and 7/10 | 90 |  |  |  |  | 366.2 ± 295.1 ×10^4 Parasites/mL | 0/5 | 157.7 ± 55.9 ×10^4 Parasites/mL | 0/5 | at least 30 fold | infected mice with complete clearance of parasitemia ([1]; 96 µM, even after immune suppression with cyclophosphamide): 60%; animal survival ([1]; 96 µM, vehicle treated samples 0%): ≥ 90%; pEC50 ([2]; used as inoculation pre-treatment concentration (Table 3 footnote a), read-out: EC50/2 h): 6.30 |
